The assay deals with Plasmodium berghei. Put plainly: Luciferase/luciferin-expressing antifolate-resistant parasites were used to infect a culture of HepG2 cells that were pre-incubated with compounds. Infected hepatocytes emit light due to the luciferase reaction. Assay results are presented as the percent inhibition of light emission compared to control. […]. It is filed as functional. The following applies: sporozoite; for IC90: read-out: LUCIFERASE INFECTION ASSAY - IC90.

The mark [1] stands for this setting: read-out: LUCIFERASE INFECTION ASSAY - IC50.

Molecules are shown by their SMILES.

In the case of `CCOC(=O)c1ccc(N2CCN(C(=O)CCc3cc(C(C)(C)C)c(O)c(C(C)(C)C)c3)CC2)nc1`, the IC90 is greater than 10 µM. Under setting [1], the IC50 was greater than 10 µM.
With `Cn1cnnc1C1CCCN(S(C)(=O)=O)C1` (centres undefined), the IC90 is greater than 10 µM. Under setting [1], the IC50 is greater than 10 µM.
For the compound `CN(C)c1cccc(-c2cnc3cnc(-c4cccnc4)cn23)c1`, the IC90 is greater than 10.5 µM. The IC50 (PBLUC_HILL_SLOPE 3.32, PBLUC_R_SQUARED 0.395, read-out: LUCIFERASE INFECTION ASSAY - IC50) worked out at 8.6 µM.
`Cc1ccc(S(=O)(=O)N(C)c2ccc(OCc3coc(-c4cccs4)n3)cc2)cc1`: the IC90 is greater than 10 µM. Besides, under setting [1], the IC50 was greater than 10 µM.
`CCCn1c(SCC(=O)NCC23CC4CC(CC(C4)C2)C3)nc2cc(Cl)ccc2c1=O`: the IC90 is greater than 10 µM. Further, the IC50 (FFLUC_HILL_SLOPE 1.09, FFLUC_R_SQUARED 0.071, read-out: LUCIFERASE INFECTION ASSAY - IC50) was greater than 10 µM.
For the compound `CC(C)c1ccccc1NC(=O)Nc1nc(C(N)C2CCCCC2)cs1` (centres undefined), the IC90 worked out at 8 µM. Further, the IC50 (HEPG2TOX_HILL_SLOPE 0.21, HEPG2TOX_R_SQUARED 0.263, PBLUC_HILL_SLOPE 31.8, PBLUC_R_SQUARED 0.686, read-out: LUCIFERASE INFECTION ASSAY - IC50) is 7.47 µM.
As to `CC(=O)Nc1cccc(Nc2nccc3[nH]c(-c4ccccc4)cc23)c1`, the IC90 was determined as 0.748 µM. Besides, where the note is “HEPG2TOX_HILL_SLOPE 1.53, HEPG2TOX_R_SQUARED 0.824, PBLUC_HILL_SLOPE 2.66, PBLUC_R_SQUARED 0.657, read-out: LUCIFERASE INFECTION ASSAY - IC50”, the concentration for half-maximal inhibition (IC50) was found to be 0.328 µM.
For the compound `CC1CCCC(NC(=O)CSc2nnc(O)n2Cc2ccccc2)C1C` (centres undefined), the IC90 is greater than 10 µM. Moreover, the IC50 under setting [1] is greater than 10 µM.
With `CCOC(=O)c1sc(SCc2ccccc2)c2c1CC(c1ccccc1)CC2=O` (centres undefined), the IC90 is greater than 7.81 µM. Further, the IC50 (FFLUC_HILL_SLOPE 10.5, FFLUC_R_SQUARED 0.686, PBLUC_HILL_SLOPE 0.804, PBLUC_R_SQUARED 0.242, read-out: LUCIFERASE INFECTION ASSAY - IC50) is greater than 7.81 µM.
In the case of `O=C(NCc1sccc1CSc1ccc(Cl)cc1)Nc1cccc(C(F)(F)F)c1`, the IC90 was 5.08 µM. In addition, the IC50 (HEPG2TOX_HILL_SLOPE 8.54, HEPG2TOX_R_SQUARED 0.938, PBLUC_HILL_SLOPE 7.51, PBLUC_R_SQUARED 0.41, read-out: LUCIFERASE INFECTION ASSAY - IC50) is 3.79 µM.
As to `O=C(COc1ccccc1C(=O)Nc1nc(-c2ccccc2)cs1)Nc1cccc(C(F)(F)F)c1`, the IC90 was 5.93 µM. Besides, the IC50 (HEPG2TOX_HILL_SLOPE 11.2, HEPG2TOX_R_SQUARED 0.982, PBLUC_HILL_SLOPE 4.71, PBLUC_R_SQUARED 0.747, read-out: LUCIFERASE INFECTION ASSAY - IC50) came out at 3.72 µM.
Regarding `Cc1nc(/C=C/C(=O)Nc2nc3ccccc3[nH]2)cs1`, the IC90 was found to be 1.37 µM. Moreover, for the setting “HEPG2TOX_HILL_SLOPE 0.99, HEPG2TOX_R_SQUARED 0.611, PBLUC_HILL_SLOPE 0.644, PBLUC_R_SQUARED 0.42, read-out: LUCIFERASE INFECTION ASSAY - IC50”, the IC50 turned out to be 0.0451 µM.
On to `Cn1c(CSc2cccs2)n[nH]c1=S`, for which the IC90 is greater than 13.6 µM. Moreover, where the note is “FFLUC_HILL_SLOPE 40, FFLUC_R_SQUARED 0.0342, read-out: LUCIFERASE INFECTION ASSAY - IC50”, the IC50 is greater than 13.6 µM.
Take `CCCNC(=O)c1c(NC(=O)c2ccc(Cl)cc2Cl)nc2ccccn12`: the IC90 was found to be 2.94 µM. Further, the IC50 (FFLUC_HILL_SLOPE 16.3, FFLUC_R_SQUARED 0.135, HEPG2TOX_HILL_SLOPE 2.05, HEPG2TOX_R_SQUARED 0.922, PBLUC_HILL_SLOPE 37.2, PBLUC_R_SQUARED 0.437, read-out: LUCIFERASE INFECTION ASSAY - IC50) is 2.77 µM.
Consider `CCN(CC)CCNc1cc(-c2cccs2)nc2ccccc12`, for which the IC90 was greater than 10.1 µM. Also, the IC50 (PBLUC_HILL_SLOPE 1.7, PBLUC_R_SQUARED 0.474, read-out: LUCIFERASE INFECTION ASSAY - IC50) came to 3.96 µM.
Regarding `CCOC(=O)c1cc(NC(=O)c2ccc(Cl)c(S(=O)(=O)N(Cc3ccccc3)c3ccccc3OC)c2)cc(C(=O)OCC)c1`, the IC90 is greater than 10 µM. The IC50 (FFLUC_HILL_SLOPE 3.02, FFLUC_R_SQUARED 0.375, read-out: LUCIFERASE INFECTION ASSAY - IC50) is greater than 10 µM.
On to `COc1cc([N+](=O)[O-])ccc1NC(=O)COC(=O)c1c(C)nn(Cc2ccc(Cl)cc2Cl)c1Cl`, for which the IC90 is greater than 10 µM. Also, the IC50 (FFLUC_HILL_SLOPE 15, FFLUC_R_SQUARED 0.28, read-out: LUCIFERASE INFECTION ASSAY - IC50) was greater than 10 µM.
`CS(=O)(=O)Nc1ccc(-c2csc(NC(=O)c3ccc(CN4CCCCC4)cc3)n2)cc1`: the IC90 is greater than 10 µM. Moreover, the IC50 (PBLUC_HILL_SLOPE 15.3, PBLUC_R_SQUARED 0.202, read-out: LUCIFERASE INFECTION ASSAY - IC50) turned out to be 9.15 µM.
Consider `CC(C)(C)c1cc(C(c2ccccn2)N2CCCC2)cc(C(C)(C)C)c1O` (centres undefined), for which the IC90 is greater than 10 µM. The IC50 under setting [1] was greater than 10 µM.
Regarding `NC(=O)C1Cc2ccccc2CN1S(=O)(=O)c1cccc2c1N=S=N2` (centres undefined), the IC90 is greater than 10 µM. In addition, under setting [1], the IC50 was greater than 10 µM.
On to `CC(c1nc(=O)c2c(-c3ccccc3)csc2[nH]1)N(C)Cc1ccccc1N1CCCC1` (centres undefined), for which the IC90 was greater than 10 µM. Under setting [1], the IC50 was greater than 10 µM.
Consider `Cc1ccc(O)c(C(=O)NCCc2ccc3c(c2)OCCO3)c1`, for which the IC90 was 7.45 µM. Besides, the IC50 (HEPG2TOX_HILL_SLOPE 15.5, HEPG2TOX_R_SQUARED 0.566, PBLUC_HILL_SLOPE 1.92, PBLUC_R_SQUARED 0.779, read-out: LUCIFERASE INFECTION ASSAY - IC50) amounted to 2.37 µM.
As to `Cn1c(Oc2cccc3c2OC(C)(C)C3)c(C#N)c(=O)n(C)c1=O`, the IC90 came to 0.188 µM. Moreover, the IC50 (PBLUC_HILL_SLOPE 0.981, PBLUC_R_SQUARED 0.556, read-out: LUCIFERASE INFECTION ASSAY - IC50) worked out at 0.02 µM.
In the case of `O=C(NCc1ccco1)/C(=C/c1cccc(C(F)(F)F)c1)c1nc2ccccc2[nH]1`, the IC90 is 7.5 µM. Further, for the setting “FFLUC_HILL_SLOPE 10.6, FFLUC_R_SQUARED 0.24, HEPG2TOX_HILL_SLOPE 4.32, HEPG2TOX_R_SQUARED 0.946, PBLUC_HILL_SLOPE 6.31, PBLUC_R_SQUARED 0.466, read-out: LUCIFERASE INFECTION ASSAY - IC50”, the IC50 is 5.3 µM.
Take `O=C(Nc1ccc(SC(F)(F)F)cc1)N1CCN(c2nc3ccc(Cl)cc3s2)CC1`: the IC90 is greater than 6.98 µM. The IC50 (HEPG2TOX_HILL_SLOPE 11, HEPG2TOX_R_SQUARED 0.778, PBLUC_HILL_SLOPE 2.23, PBLUC_R_SQUARED 0.377, read-out: LUCIFERASE INFECTION ASSAY - IC50) came to 3.77 µM.
As to `Cc1ccc(Cn2nc(C)cc2C(=O)Sc2ccccc2)cc1`, the IC90 was greater than 10.2 µM. The IC50 under setting [1] is greater than 10.2 µM.
Consider `Cc1cc(-c2cnc(N)c(-c3cccc(C(F)(F)F)c3)c2)cc(C)c1O`, for which the 90% effect concentration (IC90) was 4.83 µM. The half-inhibitory concentration (IC50) (HEPG2TOX_HILL_SLOPE 1.44, HEPG2TOX_R_SQUARED 0.945, PBLUC_HILL_SLOPE 1.93, PBLUC_R_SQUARED 0.583, read-out: LUCIFERASE INFECTION ASSAY - IC50) worked out at 1.55 µM.
Turning to `CC(C)(C)C(=O)CC(=O)Nc1ccc(C(F)(F)F)cc1`, the IC90 is greater than 11.5 µM. In addition, where the note is “FFLUC_HILL_SLOPE 0.143, FFLUC_R_SQUARED 0.0864, PBLUC_HILL_SLOPE 0.817, PBLUC_R_SQUARED 0.0775, read-out: LUCIFERASE INFECTION ASSAY - IC50”, the IC50 is greater than 11.5 µM.
As to `COc1cccc(/C=C2\Oc3cc(O)cc(C)c3C2=O)c1`, the IC90 was greater than 11.7 µM. In addition, the IC50 under setting [1] is greater than 11.7 µM.
Turning to `CCCc1nc(C)c(C(=O)Nc2nccn2Cc2ccccc2)s1`, the IC90 is greater than 10 µM. Moreover, the IC50 under setting [1] was greater than 10 µM.
Regarding `O=C(Nc1nc(-c2c[nH]c3ccccc23)cs1)c1cc(=O)[nH]c2ccccc12`, the IC90 was greater than 10 µM. Further, the IC50 (PBLUC_HILL_SLOPE 7.71, PBLUC_R_SQUARED 0.559, read-out: LUCIFERASE INFECTION ASSAY - IC50) amounted to 9.23 µM.
Take `O=C(Nc1ccccn1)c1ccc(Cl)c(S(=O)(=O)N(Cc2ccccc2)c2ccccc2)c1`: the IC90 is greater than 10 µM. Further, the IC50 (PBLUC_HILL_SLOPE 2.32, PBLUC_R_SQUARED 0.355, read-out: LUCIFERASE INFECTION ASSAY - IC50) was determined as 5.62 µM.
On to `CCCCOc1ccc(C(=O)NCC(=O)N2CCN(C/C=C/c3ccccc3)CC2)cc1`, for which the IC90 was found to be 7.33 µM. Also, the IC50 under setting [1] is 5.03 µM.
Regarding `CCOC(=O)c1sc(N)c(C#N)c1CSc1nnc(Nc2ccc(CC)cc2)s1`, the IC90 was found to be 5.14 µM. Also, the IC50 (HEPG2TOX_HILL_SLOPE 1.26, HEPG2TOX_R_SQUARED 0.992, PBLUC_HILL_SLOPE 3.19, PBLUC_R_SQUARED 0.556, read-out: LUCIFERASE INFECTION ASSAY - IC50) was 2.58 µM.
Take `CN(C)c1ccc(C(c2ccc(N(C)C)cc2)c2ccc(N(C)C)c(C#N)c2F)cc1`: the IC90 was greater than 7.92 µM. In addition, the 50% inhibitory concentration (IC50) (FFLUC_HILL_SLOPE 2.97, FFLUC_R_SQUARED 0.397, HEPG2TOX_HILL_SLOPE 0.327, HEPG2TOX_R_SQUARED 0.744, PBLUC_HILL_SLOPE 0.914, PBLUC_R_SQUARED 0.465, read-out: LUCIFERASE INFECTION ASSAY - IC50) worked out at 6.07 µM.
For `O=c1cc(-c2ccccc2)[nH]c2cc(-c3cccs3)nn12`, the IC90 was greater than 11.2 µM. Under setting [1], the IC50 came out at 8.64 µM.
The corresponding values for `CCOC(=O)c1nnsc1[S+]([O-])c1ccc(Cl)cc1` (centres undefined) are greater than 10.4 µM and greater than 10.4 µM.

The term IC50 denotes the concentration needed to halve the response being measured. Usually IC90 stands for the concentration needed for an effect of 90%.

The record behind these values is ChEMBL document CHEMBL4483862, “Open-source discovery of chemical leads for next-generation chemoprotective antimalarials” (2018).
